pIC50: −log10 of the molar value.
test system: Dirofilaria immitis; assay: Heartworm screen Dirofilaria immitis (stage DiMF/DiL4 not specified in the tables); assay type: cell-based; details: read-out: D. immitis Activity class

Row | SMILES | pIC50
1 | CCn1ccnc1S(=O)(=O)Nc1cccc2c(-c3ccccc3)ccnc12 [Compound 291, 1-ethyl-N-(4-phenylquinolin-8-yl)-1H-imidazole-2-sulfonamide] | > 6.70
2 | Cc1ccc(S(=O)(=O)Nc2cc(Cl)cc3cccnc23)nc1 [Compound 115, N-(6-chloro-quinolin-8-yl)-5-methylpyr-idine-2-sulfon-amide] | 5.30 to 6.30
3 | CCn1ccnc1S(=O)(=O)Nc1ccc(S(C)(=O)=O)c2cccnc12 [Compound 294, 1-ethyl-N-(5-(methylsulfonyl)quinolin-8-yl)-1H-imidazole-2-sulfonamide] | 6.30 to 6.70
4 | O=S(=O)(Nc1ccc(-c2ccc(F)cc2)c2cccnc12)c1nccn1CC(F)(F)F [Compound 296, N-(5-(4-fluorophenyl)quinolin-8-yl)-1-(2,2,2-trifluoroethyl)-1H-imidazol-2-sulfonamide] | > 6.70
5 | Cc1ccncc1S(=O)(=O)Nc1cccc2cccnc12 [Compound 148, 4-methyl-N-(quinolin-8-yl)pyridine-3-sulfonamide] | 5.30 to 6.30
6 | Cc1cnccc1S(=O)(=O)Nc1cccc2cccnc12 [Compound 149, 3-methyl-N-(quinolin-8-yl)pyridine-4-sulfonamide] | 5.30 to 6.30
7 | O=S(=O)(Nc1cccc2cccnc12)c1nc2ccccc2[nH]1 [Compound 232, N-(quinolin-8-yl)-1H-benzo[d] imidazole-2-sulfonamide] | 5.30 to 6.30
8 | O=S(=O)(Nc1cc(F)cc2cccnc12)c1nccn1-c1ccc(C(F)(F)F)cc1 [Compound 295, N-(6-fluoroquinolin-8-yl)-1-(4-(trifluoromethyl)phenyl)-1H-imidazole-2-sulfonamide] | > 6.70
9 | COc1ccc(S(=O)(=O)Nc2cccc3cccnc23)cn1 [Compound 144, 6-methoxy-N-(quinolin-8-yl)pyridine-3-sulfonamide] | 5.30 to 6.30
10 | COc1ccnc2c(NS(=O)(=O)c3ccc(C(F)(F)F)nc3)cccc12 [Compound 10, N-(4-meth-oxyquinolin-8-yl)-6-(trifluoro-methyl)pyr-idine-3-sulfonamide] | 5.30 to 6.30
11 | O=S(=O)(Nc1cccc2cccnc12)c1cncc(C(F)(F)F)c1 [Compound 263, N-(quinolin-8-yl)-5-(trifluoromethyl) pyridine-3-sulfonamide] | 6.30 to 6.70
12 | CCn1ccnc1S(=O)(=O)Nc1cccc2cc(C(C)=O)cnc12 [Compound 287, N-(3-acetylquinolin-8-yl)-1-ethyl-1H-imidazole-2-sulfonamide] | 6.30 to 6.70
13 | CCn1ccnc1S(=O)(=O)Nc1cc(C(=O)c2ccccc2)cc2cccnc12 [Compound 297, N-(6-benzoylquinolin-8-yl)-1-ethyl-1H-imidazole-2-sulfonamide] | 6.30 to 6.70
14 | CCn1ccnc1S(=O)(=O)Nc1cccc2c(Cl)ccnc12 [Compound 85, N-(4-chloro-quinolin-8-yl)-1-ethyl-1H-imidazole-2-sulfonamide] | 5.30 to 6.30
15 | Cc1cnc(S(=O)(=O)Nc2cccc3cccnc23)n1C [Compound 233, 1,5-dimethyl-N-(quinolin-8-yl)-1H-imidazole-2-sulfonamide] | 6.30 to 6.70
16 | Cc1cc(C)c(S(=O)(=O)Nc2cccc3cccnc23)cn1 [Compound 164, 4,6-dimethyl-N-(quinolin-8-yl)pyridine-3-sulfonamide] | 5.30 to 6.30

Row | SMILES | pIC50
17 | CCn1ccnc1S(=O)(=O)Nc1cccc2c(C)ccnc12 [Compound 104, 1-ethyl-N-(4-methylquin-olin-8-yl)-1H-imidazole-2-sulfonamide] | 6.30 to 6.70
18 | Cc1cnc2c(NS(=O)(=O)c3ncccc3C)cccc2c1 [Compound 66, 3-methyl-N-(3-methyl-quinolin-8-yl)pyridine-2-sulfonamide] | 5.30 to 6.30
19 | Cc1ccc2cccc(NS(=O)(=O)c3ncccc3C)c2n1 [Compound 67, 3-methyl-N-(2-methyl-quinolin-8-yl)pyridine-2-sulfonamide] | 5.30 to 6.30
20 | Cc1ccc(C(F)(F)F)c(S(=O)(=O)Nc2cccc3cccnc23)n1 [Compound 165, 6-methyl-N-(quinolin-8-yl)-3-(trifluoromethyl) pyridine-2-sulfonamide] | 6.30 to 6.70
21 | O=S(=O)(Nc1cccc2cccnc12)c1ccc(C2CC2)nc1 [Compound 142, 6-cyclopropyl-N-(quinolin-8-yl)pyridine-3-sulfonamide] | 5.30 to 6.30
22 | O=S(=O)(Nc1cccc2cccnc12)c1cccnc1C(F)(F)F [Compound 146, N-(quinolin-8-yl)-2-(trifluoromethyl) pyridine-3-sulfonamide] | 5.30 to 6.30
23 | COc1ccc2cccnc2c1NS(=O)(=O)c1ccc(C)cn1 [Compound 111, N-(7-methoxy-quinolin-8-yl)-5-methylpyr-idine-2-sulfonamide] | 5.30 to 6.30
24 | Cc1ccc(C(F)(F)F)nc1S(=O)(=O)Nc1cccc2cccnc12 [Compound 163, 3-methyl-N-(quinolin-8-yl)-6-(trifluoromethyl) pyridine-2-sulfonamide] | 5.30 to 6.30
25 | COc1cnc2c(NS(=O)(=O)c3ccc(C(F)(F)F)nc3)cccc2c1 [Compound 11, N-(3-meth-oxyquinolin-8-yl)-6-(trifluoro-methyl)pyr-idine-3-sulfonamide] | 5.30 to 6.30
26 | O=S(=O)(Nc1cccc2cccnc12)c1cnccc1C(F)(F)F [Compound 147, N-(quinolin-8-yl)-4-(trifluoromethyl) pyridine-3-sulfonamide] | 5.30 to 6.30
27 | CCn1ccnc1S(=O)(=O)Nc1ccc(Br)c2cccnc12 [Compound 293, N-(5-bromoquinolin-8-yl)-1-ethyl-1H-imidazole-2-sulfonamide] | > 6.70
28 | CCn1ccnc1S(=O)(=O)Nc1ccc(C#N)c2cccnc12 [Compound 290, N-(5-cyanoquinolin-8-yl)-1-ethyl-1H-imidazole-2-sulfonamide] | 6.30 to 6.70
29 | O=S(=O)(Nc1cccc2cccnc12)c1ccc(C(F)(F)F)cn1 [Compound 145, N-(quinolin-8-yl)-5-(trifluoromethyl) pyridine-2-sulfonamide] | 6.30 to 6.70
30 | CCn1ccnc1S(=O)(=O)Nc1cccc2cc(N(C)C)cnc12 [Compound 286, N-(3-(dimethylamino)quinolin-8-yl)-1-ethyl-1H-imidazole-2-sulfonamide] | 6.30 to 6.70
31 | Cc1ccccc1S(=O)(=O)Nc1cccc2cccnc12 [Compound 266, 2-methyl-N-(quinolin-8-yl)benzenesulfon-amide] | 5.30 to 6.30
32 | O=S(=O)(Nc1ccc(C(F)(F)F)c2cccnc12)c1nccn1-c1ccccc1 [Compound 289, 1-phenyl-N-(5-(trifluoromethyl)quinolin-8-yl)-1H-imidazole-2-sulfonamide] | > 6.70

test system: Onchocerca gutturosa adult male worms; assay: Onchocerca gutturosa in vitro screening model: adult worm motility score and MTT/formazan viability; assay type: cell-based; details: read-out: O. gutt Activity class

Row | SMILES | pIC50
33 | O=S(=O)(Nc1cc(O)cc2cccnc12)c1ccccn1 [Compound 94, N-(6-hydroxy-quinolin-8-yl)pyridine-2-sulfonamide] | 5.30 to 6.30
34 | CC(C)n1ccnc1S(=O)(=O)Nc1cccc2cccnc12 [Compound 241, 1-isopropyl-N-(quinolin-8-yl)-1H-imidazole-2-sulfonamide] | > 6.70
35 | CN(C)c1cncc(S(=O)(=O)Nc2c(Cl)ccc3cccnc23)n1 [Compound 50, N-(7-chloro-quinolin-8-yl)-6-(dimeth-ylamino)pyr-azine-2-sulfonamide] | 5.30 to 6.30
36 | O=S(=O)(Nc1c(Cl)cc(N2CCOCC2)c2cccnc12)c1ncccc1C1CC1 [Compound 139, N-(7-chloro-5-morpholino-quinolin-8-yl)-3-cyclopropyl-pyridine-2-sulfonamide] | > 6.70
37 | COc1cccnc1S(=O)(=O)Nc1cccc2cccnc12 [Compound 223, 3-methoxy-N-(quinolin-8-yl)pyridine-2-sulfonamide] | > 6.70
38 | N#Cc1cccc(S(=O)(=O)Nc2c(Cl)ccc3cccnc23)c1 [Compound 82, N-(7-chloro-quinolin-8-yl)-3-cyano-benzene sulfonamide] | 5.30 to 6.30
39 | O=S(=O)(Nc1cccc2cccnc12)N1CCCCC1 [Compound 205, N-(quinolin-8-yl)piperidine-1-sulfonamide] | 5.30 to 6.30
40 | Cn1ccc(S(=O)(=O)Nc2cccc3cccnc23)n1 [Compound 255, 1-methyl-N-(quinolin-8-yl)-1H-pyrazole-3-sulfonamide] | 6.30 to 6.70
41 | Cc1nc(C(F)(F)F)ccc1S(=O)(=O)Nc1cccc2cccnc12 [Compound 173, 2-methyl-N-(quinolin-8-yl)-6-(trifluoromethyl) pyridine-3-sulfonamide] | 5.30 to 6.30
42 | Cc1ccc(S(=O)(=O)Nc2cc(C(F)(F)F)cc3cccnc23)cc1 [Compound 138, 4-methyl-N-(6-(trifluoro-methyl)quin-olin-8-yl)-benzene-sulfonamide] | 6.30 to 6.70
43 | CCc1ccc(NS(=O)(=O)c2nccn2C)c2ncccc12 [Compound 130, N-(5-ethyl-quinolin-8-yl)-1-methyl-1H-imidazole-2-sulfonamide] | 5.30 to 6.30
44 | COc1cncc(S(=O)(=O)Nc2c(Cl)ccc3cccnc23)n1 [Compound 81, N-(7-chloro-quinolin-8-yl)-6-meth-oxypyrazine-2-sulfonamide] | 5.30 to 6.30
45 | O=S(=O)(Nc1cccc2cccnc12)c1ccc2ccccc2c1 [Compound 282, N-(quinolin-8-yl)naphthalene-2-sulfonamide] | 6.30 to 6.70
46 | N#Cc1cccc(S(=O)(=O)Nc2cccc3cccnc23)n1 [Compound 162, 6-cyano-N-(quinolin-8-yl)pyridine-2-sulfonamide] | 5.30 to 6.30
47 | Cc1ccc(NS(=O)(=O)c2ccco2)c2ncccc12 [Compound 65, N-(5-methyl-quinolin-8-yl)furan-2-sulfonamide] | 5.30 to 6.30
48 | O=S(=O)(Nc1cccc2cccnc12)c1ccco1 [Compound 281, N-(quinolin-8-yl)furan-2-sulfonamide] | 5.30 to 6.30
49 | Cc1cccnc1S(=O)(=O)Nc1cccc2ccc(N3CCC3)nc12 [Compound 23, N-(2-(azet-idin-1-yl)-quinolin-8-yl)-3-meth-ylpyridine-2-sulfonamide] | 5.30 to 6.30
50 | O=S(=O)(Nc1c(Cl)ccc2cccnc12)c1cncc(N2CCCC2)n1 [Compound 74, N-(7-chloro-quinolin-8-yl)-6-(pyrrol-idin-1-yl)pyr-azine-2-sulfonamide] | 6.30 to 6.70
51 | CCn1cccc1S(=O)(=O)Nc1cccc2cccnc12 [Compound 227, 1-ethyl-N-(quinolin-8-yl)-1H-pyrrole-2-sulfonamide] | > 6.70

Reference: patent US20240148744A1 (Celgene Corporation, priority 2021, published 2024)
